Measurements: publication PMC12045974, “T cell toxicity induced by tigecycline binding to the mitochondrial ribosome” (Nature Communications, 2025)
Several values for one entry are separate records, joined by “and”; a condition that tells them apart may be missing. Equal values may be shown once.

Key:
[1] = test system: CD4+ and CD8+ T cells within PBMCs; assay: T cell proliferation by flow cytometry (CTV/CFSE dilution) in stimulated PBMCs; format: cell-based, human
Method: After thawing frozen PBMCs, cells were washed with RPMI complemented with 10% FBS, 2.05 mM L-glutamine (Sigma), and 55 μM 2-ME (Gibco) and rested at 37 °C (5% CO2) for 30 min. 250,000 cells per well were seeded in 96-well U-bottom plates with/without Human T-Activator CD3/CD28 beads (Invitrogen) at a 1:1 ratio and 10 ng/ml IL-2 (Proteintech) in RPMI-1640 medium mentioned above. At the same time, antibiotics were added. For the short-term activation assay, cells were harvested 18 h post-stimulation and stained with Aqua fixable live/dead dye (Invitrogen) and surface markers. For the proliferation assays, cells were stained with CFSE (eBioscience) or Cell Trace Violet (ThermoFisher Scientific) dyes before seeding and stimulation, according to the manufacturer’s recommendations. For TCR priming experiments, tigecycline was added at 0, 24 or 72 h post-activation. For mitochondrial mass measuring, cells were stained with Mitotracker Green Fm Dye (Thermo Fisher Scientific) after incubation with Tigecycline. After incubation for 6 days with a half medium (complete, with antibiotics and IL-2) change after 3 days, cells were harvested via centrifugation, and stained with live/dead dye and surface markers for analysis by flow cytometry. The Foxp3/Transcription Factor Staining Buffer Set (Invitrogen) was used to fix cells according to the manufacturer’s instructions. The FACS gating strategy is shown in Supplementary Fig. 2D. Flow cytometry was carried out on a BD Celesta (BD Biosciences) and analyzed in FlowJo (TreeStar) software.

[2] = test system: mitochondrial translation in CD4+ and CD8+ T cells; assay: Mito-FUNCAT-FACS assay of mitochondrial translation on activated T cells; format: cell-based, human; details: for mitochondrial translation (fold change relative to negative control): per PBMC donor
Method: Thawed PBMCs were washed with RPMI ( + 10% FBS, 2.05 mM L-glutamine (Sigma), and 55 μM 2-ME (Gibco)) before resting at 37 °C (5% CO2) for 30 min. After counting, cells were resuspended in FACS buffer at a density of 5 × 10^7 cells/ml. T cells were isolated using EasySep™ Human T Cell Isolation Kit (Stemcell Technologies). Purified T cells were counted and 85,000 cells per well seeded onto 96-well U-bottom plates with/without Human T-Activator CD3/CD28 beads (Invitrogen) at a 1:2.8 cell:bead ratio and 10 ng/ml IL-2 (Proteintech) in RPMI-1640 ( + 10% FBS, 2.05 mM L-glutamine (Sigma), and 55 μM 2-ME (Gibco)) for 48 h. To assess mitochondrial translation, activated T cells were washed twice with methionine/cysteine/pyruvate-free DMEM and incubated in methionine-depletion medium (DMEM supplemented with 10% dialyzed FBS, 1× GlutaMAX, 1× sodium pyruvate, and 0.2 mM L-cystine) for 30 min at 37 °C. To inhibit cytosolic translation, anisomycin (100 μg/mL) was added to the medium. For mitochondrial translation inhibition, 100 µg/mL chloramphenicol (309 μM, positive control) or tigecycline (2.5−10 μM) were added to the medium. Cells were then labeled with 50 μM L-homopropargylglycine (HPG) for 3 h at 37 °C, during which time the medium still contained antibiotics.
Following HPG labeling, cells were collected and stained with surface markers (CD4, CD8). Cells were pre-permeabilized with 0.005% digitonin in mitochondria-protective buffer (10 mM HEPES/KOH, 10 mM NaCl, 5 mM MgCl2, 300 mM sucrose, pH 7.5) for 3 min, fixed with 4% paraformaldehyde for 10 min, and fully permeabilized with 0.25% Triton X-100 for 5 min. After blocking with 5% BSA for 10 min, incorporated HPG was detected via copper-catalyzed cycloaddition using 0.05 μM Alexa Fluor 488 picolyl azide (Click-iT™ Plus Alexa Fluor™ 488 Picolyl Azide Toolkit, Gibco) for 30 min at room temperature. Subsequently, the reaction cocktail was removed and cells resuspended in FACS buffer. Flow cytometry was carried out on a BD Celesta (BD Biosciences) and analyzed in FlowJo (TreeStar). Data are presented as fold change relative to negative controls.

CN(C)c1cc(NC(=O)CNC(C)(C)C)c(O)c2c1C[C@H]1C[C@H]3[C@H](N(C)C)C(O)=C(C(N)=O)C(=O)[C@@]3(O)C(O)=C1C2=O [Tigecycline, tigecycline]
T cell culture proliferation ([1]; 10 μM administered 24 or 72 h after TCR stimulation): significantly reduce
T cell proliferation ([1]; CD4+ and CD8+ T cells within PBMCs, 6 days of anti-CD3/CD28 stimulation + IL-2): dose-dependent reductions in proliferation
% Cells in division 4 or later ([1]; CD4, 0H): 0.15% and 0.18% and 0.39%
% Cells in each division ([1]; CD4, 0H, division number 1): 23.9% and 13% and 15.5%
% Cells in each division ([1]; CD4, 0H, division number 2): 20.2% and 38.4% and 32.9%
% Cells in each division ([1]; CD4, 0H, division number 4): 0.42% and 2.83% and 5.88%
% Cells in each division ([1]; CD4, 0H, division number 5): 0% and 0.019% and 0.22%
% Cells in each division ([1]; CD4, 0H, division number 6): 0%
% Cells in each division ([1]; CD4, 0H, division number 7): 0%
% Cells in division 4 or later ([1]; CD4, 10μM, 6 days, CTV dilution in live cells): 6.485% and 4.27% and 0.862% and 2.104% and 3.325%
% Cells in division 4 or later ([1]; CD4, 24H): 0.21% and 0.19% and 0.9%
% Cells in each division ([1]; CD4, 24H, division number 2): 18.2% and 32.4% and 28.8%
% Cells in each division ([1]; CD4, 24H, division number 5): 0.044% and 0.15% and 0.38%
% Cells in each division ([1]; CD4, 24H, division number 6): 0% and 0.01%
% Cells in each division ([1]; CD4, 24H, division number 7): 0%
% Cells in each division ([1]; CD4, 72H, division number 3): 22.6% and 24.4% and 18.1%
% Cells in each division ([1]; CD4, 72H, division number 6): 1.08% and 0.32% and 1.2%
% Cells in each division ([1]; CD4, 72H, division number 7): 0%
% Cells in division 4 or later ([1]; CD8, 0H): 0.42% and 2.88% and 6.11%
% Cells in each division ([1]; CD8, 0H, division number 1): 38.7% and 31.7%
% Cells in each division ([1]; CD8, 0H, division number 2): 25.1% and 40.8% and 45.6%
% Cells in each division ([1]; CD8, 0H, division number 3): 4.86% and 6.4% and 12.3%
% Cells in each division ([1]; CD8, 0H, division number 4): 0.15% and 0.18% and 0.36%
% Cells in each division ([1]; CD8, 0H, division number 5): 0% and 0.019%
% Cells in each division ([1]; CD8, 0H, division number 6): 0%
% Cells in each division ([1]; CD8, 0H, division number 7): 0%
% Cells in division 4 or later ([1]; CD8, 2.5μM, 6 days, CTV dilution in live cells): 47.18% and 43.35% and 55.18% and 63.83% and 48.432%
% Cells in division 4 or later ([1]; CD8, 10μM, 6 days, CTV dilution in live cells): 6.12% and 2.26% and 7.121% and 11.81% and 6.155%
% Cells in each division ([1]; CD8, 24H, division number 1): 36.2% and 37.7% and 34%
% Cells in each division ([1]; CD8, 24H, division number 2): 22.1% and 39.5% and 41.6%
% Cells in each division ([1]; CD8, 24H, division number 3): 4.04% and 8.22% and 12.9%
% Cells in each division ([1]; CD8, 24H, division number 4): 0.19% and 0.87%
% Cells in each division ([1]; CD8, 24H, division number 5): 0.018% and 0% and 0.019%
% Cells in each division ([1]; CD8, 24H, division number 6): 0%
% Cells in each division ([1]; CD8, 24H, division number 7): 0%
% Cells in each division ([1]; CD8, 72H, division number 0): 1.06% and 7.49% and 1.18%
% Cells in each division ([1]; CD8, 72H, division number 2): 24.9% and 34.1% and 20.9%
% Cells in each division ([1]; CD8, 72H, division number 3): 45.1% and 28.9% and 40.2%
% Cells in each division ([1]; CD8, 72H, division number 5): 2.16% and 0.67% and 3.66%
% Cells in each division ([1]; CD8, 72H, division number 6): 0.03% and 0.025% and 0.033%
% Cells in each division ([1]; CD8, 72H, division number 7): 0%
mitochondrial translation (fold change relative to negative control) ([2]; CD4, 2.5µM): 0.947 and 0.7157 and 0.7389
mitochondrial translation (fold change relative to negative control) ([2]; CD4, 5µM): 0.8077 and 0.645 and 0.697
mitochondrial translation (fold change relative to negative control) ([2]; CD4, 10µM): 0.7443 and 0.3992 and 0.6483 and 0.5621
mitochondrial translation (fold change relative to negative control) ([2]; CD8, 2.5µM): 0.9388 and 0.7432 and 0.8324
mitochondrial translation (fold change relative to negative control) ([2]; CD8, 5µM): 0.8134 and 0.656 and 0.7756
mitochondrial translation (fold change relative to negative control) ([2]; CD8, 10µM): 0.7567 and 0.4193 and 0.7571 and 0.5029
inhibition of mitochondrial translation ([2]; TCR-stimulated CD4+ and CD8+ T cells, 2.5-10 μM): dose-dependent inhibition of mitochondrial translation
